The values that follow come from patent US10329270B2, “Heteroaryl compounds as BTK inhibitors and uses thereof” (Merck Patent GmbH, priority 2013, dated 2019).

As a reminder, the IC50 is the concentration that gives 50% inhibition.

One test deals with PBMC. Description: Assay B: Time Dependent PMBC IC50 Assay. Format: cell-based. How it is done: Assay B: Time Dependent PMBC IC50 Assay
Compounds described by embodiments of the present invention were assayed using a time dependent PMBC assay. The data from the same is recorded in Table 2 within the column labeled: “Time Dependent PBMC Assay IC50.” These IC50 values are reported in ranges wherein: I<1 uM and II>1 uM.

A further test has as its target T1, full-length human BTK (Homo sapiens, UniProt Q06187).
T1 construct: 2.5× stocks of full-length human BTK (08-080); purchased CarnaBio USA, Inc., Natick, Mass; 08-080
Description: Assay A: BTK IC50 Enzyme Assay (microfluidic off-chip mobility shift kinase assay). Format: biochemical. The note with it: full-length human BTK, kinKDR peptide substrate, incubated 90 min at 27 C; read-out: Assay A (Time Dependent BTK Enzyme Assay IC50). A digest of the protocol: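 Off-chip microfluidic mobility shift assay with full-length human BTK; phosphorylated and unphosphorylated peptide substrate were separated by charge/mass on a LabChip 3000.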

T1 sequence (Q06187 whole entry): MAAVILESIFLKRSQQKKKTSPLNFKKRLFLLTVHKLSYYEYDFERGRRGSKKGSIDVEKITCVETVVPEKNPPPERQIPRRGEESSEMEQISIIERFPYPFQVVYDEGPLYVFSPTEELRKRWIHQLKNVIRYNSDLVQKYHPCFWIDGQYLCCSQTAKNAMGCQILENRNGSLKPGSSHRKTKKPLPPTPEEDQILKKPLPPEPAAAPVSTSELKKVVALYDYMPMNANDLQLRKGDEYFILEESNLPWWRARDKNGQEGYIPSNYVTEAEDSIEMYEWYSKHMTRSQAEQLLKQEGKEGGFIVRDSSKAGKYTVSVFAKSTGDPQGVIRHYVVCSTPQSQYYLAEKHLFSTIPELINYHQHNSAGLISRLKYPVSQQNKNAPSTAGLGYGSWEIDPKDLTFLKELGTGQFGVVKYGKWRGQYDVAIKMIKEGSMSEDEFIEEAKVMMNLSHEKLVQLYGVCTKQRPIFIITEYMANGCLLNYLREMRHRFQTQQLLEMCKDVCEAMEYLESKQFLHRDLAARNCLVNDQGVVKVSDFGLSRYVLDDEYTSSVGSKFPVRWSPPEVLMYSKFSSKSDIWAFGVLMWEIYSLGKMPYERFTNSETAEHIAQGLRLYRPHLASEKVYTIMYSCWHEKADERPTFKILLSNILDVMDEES

For `C=CC(=O)N[C@@H]1CN(c2ccc(C(N)=O)c(Nc3ccc(CCN4CCCC4)cc3)n2)CC12CC2` [Compound 7, 6-((S)-7-Acryloylamino-5-aza-spiro[2.4]hept-5-yl)-2-[4-(2-pyrrolidin-1-yl-ethyl)-phenylamino]-nicotinamide], the IC50 in the test on PBMC and at full-length human BTK was below 100 nM each time.
With `C=CC(=O)N1CCC(c2ccc(C(N)=O)c(Nc3ccc(OC4CCN(C)CC4)cc3)n2)CC1` [Compound 10, 1′-Acryloyl-6-[4-(1-methyl-piperidin-4-yloxy)-phenylamino]-1′,2′,3′,4′,5′,6′-hexahydro-[2,4′]bipyridinyl-5-carboxylic acid amide], the IC50 with PBMC and on full-length human BTK was below 100 nM in each case.
On to `C=CC(=O)N1CCN(c2ccc(C(N)=O)c(Nc3ccc(CCN4CCCC4)cc3)n2)CC1` [Compound 12, 6-(4-Acryloyl-piperazin-1-yl)-2-[4-(2-pyrrolidin-1-yl-ethyl)-phenylamino]-nicotinamide], for which the IC50 in the test on PBMC and at full-length human BTK was below 100 nM in each case.
As for `C=CC(=O)N[C@H]1CCN(c2ccc(C(N)=O)c(Nc3ccc(C4CCN(C)CC4)cc3)n2)C1` [Compound 14, 6-((S)-3-Acryloylamino-pyrrolidin-1-yl)-2-[4-(1-methyl-piperidin-4-yl)-phenylamino]-nicotinamide], the IC50 in the test on PBMC and at full-length human BTK was below 100 nM in each case.
`C=CC(=O)N[C@H]1CCN(c2ccc(C(N)=O)c(Nc3ccc(CCN4CCCC4)cc3)n2)C1` [Compound 16, 6-((S)-3-Acryloylamino-pyrrolidin-1-yl)-2-[4-(2-pyrrolidin-1-yl-ethyl)-phenylamino]-nicotinamide]: the IC50 in the test on PBMC and on full-length human BTK was below 100 nM each time.
As for `C=CC(=O)N1CC=C(c2ccc(C(N)=O)c(Nc3ccc(CCN4CCCC4)cc3)n2)CC1` [Compound 17, 1′-Acryloyl-6-[4-(2-pyrrolidin-1-yl-ethyl)-phenylamino]-1′,2′,3′,6′-tetrahydro-[2,4′]bipyridinyl-5-carboxylic acid amide], the IC50 with PBMC and at full-length human BTK was below 100 nM each time.
In the case of `C=CC(=O)N1CCC(c2ccc(C(N)=O)c(Nc3ccc(CCN4CCCC4)cc3)n2)CC1` [Compound 18, 1′-Acryloyl-6-[4-(2-pyrrolidin-1-yl-ethyl)-phenylamino]-1′,2′,3′,4′,5′,6′-hexahydro-[2,4′]bipyridinyl-5-carboxylic acid amide], the IC50 in the test with PBMC and at full-length human BTK was below 100 nM in each case.
Consider `C=CC(=O)N1CCC2(CCN(c3ccc(C(N)=O)c(Nc4ccc(CCN5CCCC5)cc4)n3)C2)C1` (stereo not drawn) [Compound 20, 6-(7-Acryloyl-2,7-diaza-spiro[4.4]non-2-yl)-2-[4-(2-pyrrolidin-1-yl-ethyl)-phenylamino]-nicotinamide], for which the IC50 with PBMC and at full-length human BTK was below 100 nM each time.
With `C=CC(=O)N1CCC(c2ccc(C(N)=O)c(Nc3ccc(C(=O)N4CCCCC4)cc3)n2)CC1` [Compound 22, 1′-Acryloyl-6-[4-(piperidine-1-carbonyl)-phenylamino]-1′,2′,3′,4′,5′,6′-hexahydro-[2,4′]bipyridinyl-5-carboxylic acid amide], the IC50 with PBMC and at full-length human BTK was below 100 nM throughout.
Take `C=CC(=O)N1C[C@@H]2C[C@H]1CN2c1ccc(C(N)=O)c(Oc2ccc(Oc3ccccc3)cc2)n1` [Compound 23, 6-((1S,4S)-5-acryloyl-2,5-diazabicyclo[2.2.1]heptan-2-yl)-2-(4-phenoxyphenoxy)nicotinamide]: the IC50 with PBMC is below 100 nM.
In the case of `C=CC(=O)N(C)[C@H]1CCN(c2ccc(C(N)=O)c(Nc3ccc(CCN4CCCC4)cc3)n2)C1` [Compound 30, 6-[(S)-3-(Acryloyl-methyl-amino)-pyrrolidin-1-yl]-2-[4-(2-pyrrolidin-1-yl-ethyl)-phenylamino]-nicotinamide], the IC50 with PBMC and on full-length human BTK was below 100 nM in each case.
As to `C=CC(=O)N[C@H]1CCN(c2ccc(C(N)=O)c(Nc3ccc(N4CCCCC4)cc3)n2)C1` [Compound 31, 6-((S)-3-Acryloylamino-pyrrolidin-1-yl)-2-(4-piperidin-1-yl-phenylamino)-nicotinamide], the figures for the IC50 in the test with PBMC and at full-length human BTK were 100 to 1000 nM and below 100 nM, respectively.
Taken in the same sequence, the figures for `C=CC(=O)N[C@H]1CCN(c2ccc(C(N)=O)c(Nc3ccc(N4CCOCC4)nc3)n2)C1` [Compound 38, 6-((S)-3-Acryloylamino-pyrrolidin-1-yl)-2-(6-morpholin-4-yl-pyridin-3-ylamino)-nicotinamide] were 100 to 1000 nM and below 100 nM.
In the same order, the values of `C=CC(=O)N[C@H]1CCN(c2ccc(C(N)=O)c(Nc3ccc(C(=O)N4CC(C)OC(C)C4)cc3)n2)C1` (stereo partly drawn) [Compound 40, 6-((S)-3-Acryloylamino-pyrrolidin-1-yl)-2-[4-(2,6-dimethyl-morpholine-4-carbonyl)-phenylamino]-nicotinamide] are 100 to 1000 nM and below 100 nM.
Taken in the same sequence, the figures for `C=CC(=O)N1CCC=C(c2ccc(C(N)=O)c(Nc3ccc(CCN4CCCC4)cc3)n2)C1` [Compound 44, 1′-Acryloyl-6-[4-(2-pyrrolidin-1-yl-ethyl)-phenylamino]-1′,2′,5′,6′-tetrahydro-[2,3′]bipyridinyl-5-carboxylic acid amide] were 100 to 1000 nM and below 100 nM.
`C=CC(=O)N1C2CCC1CN(c1ccc(C(N)=O)c(Oc3ccc(Oc4ccccc4)cc3)n1)C2` [Compound 68, 6-(8-Acryloyl-3,8-diaza-bicyclo[3.2.1]oct-3-yl)-2-(4-phenoxy-phenoxy)-nicotinamide] displayed an IC50 in the test on PBMC below 100 nM.
Same read-out and setting: then `C=CC(=O)N1CC[C@@H](Nc2ccc(C(N)=O)c(Oc3ccc(Oc4ccccc4)cc3)n2)C1` [Compound 72, 6-((R)-1-Acryloyl-pyrrolidin-3-ylamino)-2-(4-phenoxy-phenoxy)-nicotinamide], with below 100 nM.
With `C=CC(=O)Nc1cncc(-c2ccc(C(N)=O)c(Oc3ccc(Oc4ccccc4)cc3)n2)c1` [Compound 75, 5′-acrylamido-6-(4-phenoxyphenoxy)-[2,3′-bipyridine]-5-carboxamide], the concentration for half-maximal inhibition (IC50) in the test on PBMC and on full-length human BTK was below 100 nM throughout.
Take `C=CC(=O)N[C@H]1CCN(c2cc(Nc3ccc(C(=O)N4CCOCC4)cc3)c(C(N)=O)cn2)C1` [Compound 108, 6-((S)-3-Acryloylamino-pyrrolidin-1-yl)-4-[4-(morpholine-4-carbonyl)-phenylamino]-nicotinamide]: the IC50 is 100 to 1000 nM with PBMC and below 100 nM on full-length human BTK.
In the same order, the values of `C=CC(=O)N1CCC(c2cnc(C(N)=O)c(NC(C)=O)c2)CC1` [Compound 134] are 100 to 1000 nM and below 100 nM.
As for `C=CC(=O)N1CCN(c2ncc(C(N)=O)c(Oc3ccc(Oc4ccccc4)cc3)n2)CC1` [Compound 173, 2-(4-Acryloyl-piperazin-1-yl)-4-(4-phenoxy-phenoxy)-pyrimidine-5-carboxylic acid amide], the IC50 in the test with PBMC and at full-length human BTK was below 100 nM each time.
For the compound `C=CC(=O)N1CCC(c2ccc(C(N)=O)c(Nc3ccc(C(=O)N4CCN(C(=O)CCCCNC(=O)CCOCCOCCOCCOCCNC(=O)CCCCC5SCC6NC(=O)NC65)CC4)cc3)n2)CC1` (stereo not drawn) [Compound 177], the IC50 in the test with PBMC is above 5000 nM; at full-length human BTK, below 100 nM.
Taken in the same sequence, the figures for `C=CC(=O)N[C@H]1CCN(c2nc(Nc3ccc(CCN4CCCC4)cc3)c(C(N)=O)cc2F)C1` [Compound 179, 6-((S)-3-Acryloylamino-pyrrolidin-1-yl)-5-fluoro-2-[4-(2-pyrrolidin-1-yl-ethyl)-phenylamino]-nicotinamide] were below 100 nM and below 100 nM.
Consider `C=CC(=O)N[C@H]1CCN(c2nc(Nc3ccc(N4CC(C)OC(C)C4)cc3)c(C(N)=O)cc2F)C1` (stereo partly drawn) [Compound 188, 6-((S)-3-Acryloylamino-pyrrolidin-1-yl)-2-[4-(2,6-dimethyl-morpholin-4-yl)-phenylamino]-5-fluoro-nicotinamide], for which the IC50 in the test on PBMC and at full-length human BTK was below 100 nM each time.
Regarding `N#CN1CCC[C@H](c2cnc(Oc3ccc(Oc4ccc(F)cc4F)cc3)c(C(N)=O)c2)C1` [Compound 248, 5-[(3R)-1-cyanopiperidin-3-yl]-2-[4-(2,4-difluorophenoxy)phenoxy]pyridine-3-carboxamide], at full-length human BTK, the IC50 lay within 1000 to 5000 nM.
Same read-out and setting: then `N#CN1CCC[C@@H](c2cnc(Oc3ccc(Oc4ccc(F)cc4F)cc3)c(C(N)=O)c2)C1` [Compound 249, 5-[(3S)-1-cyanopiperidin-3-yl]-2-[4-(2,4-difluorophenoxy)phenoxy]pyridine-3-carboxamide], with above 5000 nM; and `N#CN1CCC(Nc2cnc(Oc3ccc(Oc4ccc(F)cc4F)cc3)c(C(N)=O)c2)C1` (stereo not drawn) [Compound 250, 5-[(1-cyanopyrrolidin-3-yl)amino]-2-[4-(2,4-difluorophenoxy)phenoxy]pyridine-3-carboxamide], with 1000 to 5000 nM.
On the same count and under the same terms, then `C=CC(=O)N1CCCC(Nc2cnc(Oc3ccc(Oc4cccc(F)c4)cc3)c(C(N)=O)c2)C1` (stereo not drawn) [Compound 251], with 100 to 1000 nM; and `C=CC(=O)N1CCC(Nc2cnc(Oc3ccc(Oc4ccccc4)cc3)c(C(N)=O)c2)CC1` [Compound 252, 5-(1-Acryloyl-piperidin-4-ylamino)-2-(4-phenoxy-phenoxy)-nicotinamide], with below 100 nM.
Still for that read-out and setting: as for `C=CC(=O)N1CCC(Nc2cnc(Oc3ccc(Oc4cccc(F)c4)cc3)c(C(N)=O)c2)C1` (stereo not drawn) [Compound 253, 5-(1-Acryloyl-pyrrolidin-3-ylamino)-2-[4-(3-fluoro-phenoxy)-phenoxy]-nicotinamide], the figure is below 100 nM.
